Earlier results as cited in patent publication US20090137477A1, “Treatment of oropharyngeal candidiasis in cancer patients” (BIOALLIANCE PHARMA, priority 2007, published 2009).

Test system: oropharyngeal candidiasis
Details: orally 50 mg/day for 14 days

OC(Cn1cncn1)(Cn1cncn1)c1ccc(F)cc1F [fluconazole]
clinical cure: 21%
clinical response: 53%
